# Data from patent publication US11485736B2 (KSQ Therapeutics, Inc., priority 2018, dated 2022).
# Like-named read-outs stand apart in the source and are kept apart here.
# Columns and labels:
# [1] = ADME solubility determination at pH 2.0 and pH 7.4; type: physicochemical; conditions: aqueous buffer, thermodynamic from solid, LC-MS/MS
# Procedure, shortened: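 Dried residues of 10 mM DMSO stocks were shaken in PBS pH 7.4 or pH 2.0 for 24 hours at 25° C. and 1,100 rpm. After centrifugation, supernatants were quantified by LC-MS/MS against a standard of known concentration, applying a dilution factor.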
# [2] = Liver microsomal stability, rat liver microsomes; type: in vitro ADME; conditions: 1 μM compound, NADPH, read-out: t1/2 (min) in RLM
# Procedure, shortened: (§1)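 Compound (1 μM final) was incubated with prewarmed human or rat liver microsomes (1 mg/mL in 100 mM phosphate master mix) plus NADPH; aliquots at 0.5–30 minutes were quenched in cold acetonitrile and quantified by LC-MS/MS. Half-life came from the ln(% remaining) versus time slope, converted to CLint (μL/min/mg prot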
# [3] = Liver microsomal stability, human liver microsomes; type: in vitro ADME; conditions: 1 μM compound, NADPH, read-out: t1/2 (min) in HLM
# Procedure, shortened: as §1
# [4] = PBS pH 2.0, shaken at 25° C. for 24 hours, read-out: Solubility at pH 2.0
# [5] = PBS pH 7.4, shaken at 25° C. for 24 hours, read-out: Solubility at pH 7.4
SMILES,"solubility at 24 h [1, 4]","solubility at 24 h [1, 5]",half-life at 1 μM [2],half-life at 1 μM [3]
"COc1ncnc(C2CC2)c1-c1ncc2cnn([C@H]3CCc4cc(-c5nc(C(F)(F)F)cn5C(C)C)ccc43)c2n1 [Example 173, (S)-6-(4-cyclopropyl-6-methoxypyrimidin-5-yl)-1-(5-(1-isopropyl-4-(trifluoromethyl)-1H-imidazol-2-yl)-2,3-dihydro-1H-inden-1-yl)-1H-pyrazolo[3,4-d]pyrimidine]",< 10 µM,< 10 µM,> 25 min,> 25 min
COc1ncnc(C2CC2)c1-c1ncc2cnn([C@@H]3CCc4cc(-c5nc(C(F)(F)F)cn5C(C)C)ccc43)c2n1 [Example 174],< 10 µM,< 10 µM,> 25 min,> 25 min
"CCn1cc(C(F)(F)F)nc1-c1ccc(Cn2nc(OC)c3cnc(-c4c(OC)ncnc4C4CC4)nc32)cc1F [Example 175, 6-(4-cyclopropyl-6-methoxypyrimidin-5-yl)-1-(4-(1-ethyl-4-(trifluoromethyl)-1H-imidazol-2-yl)-3-fluorobenzyl)-3-methoxy-1H-pyrazolo[3,4-d]pyrimidine]",< 10 µM,< 10 µM,> 25 min,> 25 min
CCn1cc(C(F)(F)F)nc1-c1ccc(Cn2nc(OC)c3cnc(-c4c(OC)ncnc4C4CC4)nc32)cc1 [Example 176],> 10 µM,< 10 µM,> 25 min,> 25 min
COc1ncnc(C2CC2)c1-c1ncc2c(OC)nn(C(C)c3ccc(-c4nc(C(F)(F)F)cn4CCF)cc3)c2n1 (stereo not shown) [Example 177],< 10 µM,< 10 µM,> 25 min,> 25 min
COc1ncnc(C2CC2)c1-c1ncc2c(OC)nn([C@@H](C)c3ccc(-c4nc(C(F)(F)F)cn4CCF)cc3)c2n1 [Example 178],< 10 µM,< 10 µM,> 25 min,> 25 min
CCn1cc(C(F)(F)F)nc1-c1ccc([C@H](C)n2nc(OC)c3cnc(-c4c(OC)ncnc4C4CC4)nc32)cc1 [Example 180],< 10 µM,< 10 µM,> 25 min,> 25 min
COc1ncnc(C2CC2)c1-c1ncc2c(OC)nn([C@@H](C)c3ccc(-c4nc(C(F)(F)F)cn4C(C)C)cc3)c2n1 [Example 181],> 10 µM,< 10 µM,> 25 min,> 25 min
CCOc1nn(Cc2ccc(-c3nc(C(F)(F)F)cn3CC)cc2)c2nc(-c3c(OC)ncnc3C3CC3)ncc12 [Example 182],< 10 µM,< 10 µM,> 25 min,> 25 min
CCOc1ncnc(C2CC2)c1-c1ncc2c(OCC)nn(Cc3ccc(-c4nc(C(F)(F)F)cn4CC)cc3)c2n1 [Example 183],< 10 µM,< 10 µM,< 25 min,< 25 min
CCn1cc(C(F)(F)F)nc1-c1ccc(Cn2nc(OC3CCC3)c3cnc(-c4c(OC)ncnc4C4CC4)nc32)cc1 [Example 184],< 10 µM,< 10 µM,< 25 min,< 25 min
COc1ncnc(C2CC2)c1-c1ncc2c(OC)nn(Cc3ccc(-c4cn(C(C)C)c(C(F)(F)F)n4)cc3)c2n1 [Example 185],< 10 µM,< 10 µM,> 25 min,> 25 min
"CCn1cc(C(F)(F)F)nc1-c1ccc(Cn2nc(N3CCC3)c3cnc(-c4c(OC)ncnc4C4CC4)nc32)cc1 [Example 186, 3-(azetidin-1-yl)-6-(4-cyclopropyl-6-methoxypyrimidin-5-yl)-1-(4-(1-ethyl-4-(trifluoromethyl)-1H-imidazol-2-yl)benzyl)-1H-pyrazolo[3,4-d]pyrimidine]",> 10 µM,> 10 µM,< 25 min,< 25 min

# Continued, values first:
"solubility at 24 h [1, 4]","solubility at 24 h [1, 5]",half-life at 1 μM [2],half-life at 1 μM [3],SMILES
< 10 µM,< 10 µM,< 25 min,> 25 min,"CCn1cc(C(F)(F)F)nc1-c1ccc(Cn2nc(C)c3cnc(-c4c(OC)ncnc4C4CC4)nc32)cc1 [Example 187, 6-(4-cyclopropyl-6-methoxypyrimidin-5-yl)-1-(4-(1-ethyl-4-(trifluoromethyl)-1H-imidazol-2-yl)benzyl)-3-methyl-1H-pyrazolo[3,4-d]pyrimidine]"
< 10 µM,< 10 µM,> 25 min,> 25 min,"COc1ncnc(C2CC2)c1-c1ncc2c(OC)nn([C@@H](C)c3ccc(-c4nc(C(F)(F)F)c(Br)n4C)cc3)c2n1 [Example 188, (S)-1-(1-(4-(5-bromo-1-methyl-4-(trifluoromethyl)-1H-imidazol-2-yl)phenyl)ethyl)-6-(4-cyclopropyl-6-methoxypyrimidin-5-yl)-3-methoxy-1H-pyrazolo[3,4-d]pyrimidine]"
< 10 µM,< 10 µM,> 25 min,> 25 min,CCn1c(-c2ccc(Cn3nc(OC)c4cnc(-c5c(OC)ncnc5C5CC5)nc43)cc2)nc(C(F)(F)F)c1Br [Example 189]
< 10 µM,< 10 µM,< 25 min,< 25 min,"CCn1cc(C(F)(F)F)nc1-c1ccc(Cn2nc(SC)c3cnc(-c4c(OC)ncnc4C4CC4)nc32)cc1 [Example 190, 6-(4-cyclopropyl-6-methoxypyrimidin-5-yl)-1-(4-(1-ethyl-4-(trifluoromethyl)-1H-imidazol-2-yl)benzyl)-3-(methylthio)-1H-pyrazolo[3,4-d]pyrimidine]"
< 10 µM,< 10 µM,< 25 min,< 25 min,"CCn1cc(C(F)(F)F)nc1-c1ccc(Cn2nc(SCc3ccc(OC)cc3)c3cnc(-c4c(OC)ncnc4C4CC4)nc32)cc1 [Example 192, 6-(4-cyclopropyl-6-methoxypyrimidin-5-yl)-1-(4-(1-ethyl-4-(trifluoromethyl)-1H-imidazol-2-yl)benzyl)-3-((4-methoxybenzyl)thio)-1H-pyrazolo[3,4-d]pyrimidine]"
< 10 µM,< 10 µM,> 25 min,> 25 min,"COc1ncnc(C2CC2)c1-c1ncc2cnn(Cc3ccc(-n4nc(C(F)(F)F)cc4CO)cc3)c2n1 [Example 198, (1-(4-((6-(4-cyclopropyl-6-methoxypyrimidin-5-yl)-1H-pyrazolo[3,4-d]pyrimidin-1-yl)methyl)phenyl)-3-(trifluoromethyl)-1H-pyrazol-5-yl)methanol]"
> 10 µM,> 10 µM,> 25 min,> 25 min,"COc1ncnc(C2CC2)c1-c1ncc2cnn(Cc3ccc(-n4nc(C(F)(F)F)cc4OC4CNC4)cc3)c2n1 [Example 200, 1-(4-(5-(azetidin-3-yloxy)-3-(trifluoromethyl)-1H-pyrazol-1-yl)benzyl)-6-(4-cyclopropyl-6-methoxypyrimidin-5-yl)-1H-pyrazolo[3,4-d]pyrimidine]"
> 10 µM,< 10 µM,< 25 min,< 25 min,"COc1ncnc(C2CC2)c1-c1ncc2ccn(Cc3ccc(-c4nc(C(F)(F)F)cn4C)cc3)c2n1 [Example 201, 2-(4-cyclopropyl-6-methoxypyrimidin-5-yl)-7-(4-(1-methyl-4-(trifluoromethyl)-1H-imidazol-2-yl)benzyl)-7H-pyrrolo[2,3-d]pyrimidine]"
> 10 µM,< 10 µM,< 25 min,< 25 min,"CC(C)c1ccccc1-c1ncc2ncn(Cc3ccc(-c4nc(C(F)(F)F)cn4C)cc3)c2n1 [Example 202, 2-(2-Isopropylphenyl)-9-(4-(1-methyl-4-(trifluoromethyl)-1H-imidazol-2-yl)benzyl)-9H-purine]"
> 10 µM,> 10 µM,< 25 min,< 25 min,COc1ncnc(C2CC2)c1-c1ncc2ncn(Cc3ccc(-c4nc(C(F)(F)F)cn4C)cc3)c2n1 [Example 203]
> 10 µM,> 10 µM,< 25 min,> 25 min,COc1ncnc(C2CC2)c1-c1ncc2ncn(Cc3ccc(-c4nc(C(F)(F)F)cn4C(C)C)cc3)c2n1 [Example 204]
> 10 µM,> 10 µM,> 25 min,> 25 min,"CCc1nc2cnc(-c3c(OC)ncnc3C3CC3)nc2n1Cc1ccc(-c2nc(C(F)(F)F)cn2C(C)C)cc1 [Example 205, 2-(4-cyclopropyl-6-methoxypyrimidin-5-yl)-8-ethyl-9-(4-(1-isopropyl-4-(trifluoromethyl)-1H-imidazol-2-yl)benzyl)-9H-purine]"
> 10 µM,< 10 µM,> 25 min,< 25 min,COc1ncnc(C2CC2)c1-c1ncc2nc(C)n(Cc3ccc(-c4nc(C(F)(F)F)cn4C)cc3)c2n1 [Example 206]
> 10 µM,> 10 µM,> 25 min,< 25 min,COCc1nc2cnc(-c3c(OC)ncnc3C3CC3)nc2n1Cc1ccc(-c2nc(C(F)(F)F)cn2C(C)C)cc1 [Example 207]
< 10 µM,< 10 µM,> 25 min,> 25 min,COc1ncnc(C2CC2)c1-c1ncc2nc(C(C)C)n(Cc3ccc(-c4nc(C(F)(F)F)cn4C(C)C)cc3)c2n1 [Example 208]
